pIC50: −log10 of the molar value.
Experiments:
NCI-H661 = test: Antiproliferative activity against human NCI-H661 cells assessed as inhibition of cell growth after 72 hrs by MTT-based assay; assay type: functional; details: NCI-H661, 72 h
cells [1] = assay type: functional, cell-based; details: Homo sapiens, HCT-116, 72 h
Description: Antiproliferative activity against human HCT116 cells assessed as inhibition of cell growth after 72 hrs by MTT-based assay

A549 = test: Antiproliferative activity against human A549 cells assessed as inhibition of cell growth after 72 hrs by MTT-based assay; assay type: functional; details: A549, 72 h
MDA-MB-231 = test: cells; assay type: functional, cell-based; details: Homo sapiens, MDA-MB-231, 72 h
Description: Antiproliferative activity against human MDA-MB-231 cells assessed as inhibition of cell growth after 72 hrs by MTT-based assay

cells [2] = assay type: functional, cell-based; details: Homo sapiens, U-937, 72 h
Description: Antiproliferative activity against human U937 cells assessed as inhibition of cell growth after 72 hrs by MTT-based assay

Histone deacetylase 8 = target: T1, Histone deacetylase 8 (Homo sapiens, UniProt Q9BY41); test: Inhibition of recombinant HDAC8 (unknown origin) using fluorogenic substrate Boc-Lys (acetyl)-AMC after 20 mins by homogeneous fluorescence release assay
T1 sequence (Q9BY41 whole entry): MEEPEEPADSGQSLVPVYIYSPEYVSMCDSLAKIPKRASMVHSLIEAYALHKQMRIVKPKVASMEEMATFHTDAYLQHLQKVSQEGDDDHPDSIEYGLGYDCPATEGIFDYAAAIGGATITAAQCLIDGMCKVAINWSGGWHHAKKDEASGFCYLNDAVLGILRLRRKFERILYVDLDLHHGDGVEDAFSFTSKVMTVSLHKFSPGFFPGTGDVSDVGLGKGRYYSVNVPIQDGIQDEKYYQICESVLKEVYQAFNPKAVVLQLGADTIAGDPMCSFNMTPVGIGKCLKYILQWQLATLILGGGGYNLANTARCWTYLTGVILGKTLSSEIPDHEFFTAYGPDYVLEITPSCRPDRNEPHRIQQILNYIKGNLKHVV

Histone deacetylase 1 = Histone deacetylase 1 (Homo sapiens, UniProt Q13547); test: Inhibition of recombinant HDAC1 (unknown origin) using fluorogenic substrate Boc-Lys (acetyl)-AMC after 20 mins by homogeneous fluorescence release assay
Histone deacetylase 1, sequence (Q13547 whole entry): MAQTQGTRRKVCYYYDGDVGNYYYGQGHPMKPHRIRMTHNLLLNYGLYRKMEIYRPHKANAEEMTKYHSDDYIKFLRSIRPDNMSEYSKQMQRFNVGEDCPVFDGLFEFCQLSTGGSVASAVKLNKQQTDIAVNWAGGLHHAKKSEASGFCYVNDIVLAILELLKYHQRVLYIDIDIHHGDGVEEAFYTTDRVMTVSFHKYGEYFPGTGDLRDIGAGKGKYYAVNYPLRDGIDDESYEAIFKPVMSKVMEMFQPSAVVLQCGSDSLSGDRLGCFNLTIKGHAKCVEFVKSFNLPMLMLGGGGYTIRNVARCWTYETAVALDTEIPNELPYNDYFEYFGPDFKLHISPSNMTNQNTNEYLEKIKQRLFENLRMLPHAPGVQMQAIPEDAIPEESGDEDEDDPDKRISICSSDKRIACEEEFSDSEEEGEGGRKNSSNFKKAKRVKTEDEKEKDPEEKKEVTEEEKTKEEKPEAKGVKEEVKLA

Histone deacetylase 2 = Histone deacetylase 2 (Homo sapiens, UniProt Q92769); test: Inhibition of recombinant HDAC2 (unknown origin) using fluorogenic substrate Boc-Lys (acetyl)-AMC after 20 mins by homogeneous fluorescence release assay
Histone deacetylase 2, sequence (Q92769 whole entry): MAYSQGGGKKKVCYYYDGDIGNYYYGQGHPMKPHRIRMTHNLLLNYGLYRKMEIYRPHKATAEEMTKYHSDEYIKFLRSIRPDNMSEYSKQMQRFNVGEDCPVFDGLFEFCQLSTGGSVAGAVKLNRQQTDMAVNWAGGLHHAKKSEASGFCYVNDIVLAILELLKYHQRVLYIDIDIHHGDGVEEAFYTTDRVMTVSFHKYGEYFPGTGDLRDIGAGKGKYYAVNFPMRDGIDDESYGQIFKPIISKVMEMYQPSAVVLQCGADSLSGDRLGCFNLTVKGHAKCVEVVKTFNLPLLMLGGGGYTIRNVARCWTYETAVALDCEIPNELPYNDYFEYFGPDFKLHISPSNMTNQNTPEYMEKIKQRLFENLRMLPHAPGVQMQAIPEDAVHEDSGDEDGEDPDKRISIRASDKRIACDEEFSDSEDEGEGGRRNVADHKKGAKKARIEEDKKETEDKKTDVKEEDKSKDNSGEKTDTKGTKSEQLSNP

Row | Compound | pIC50 (NCI-H661) | pIC50 (cells [1]) | pIC50 (A549) | pIC50 (MDA-MB-231) | pIC50 (cells [2]) | pIC50 (Histone deacetylase 8) | pIC50 (Histone deacetylase 1) | pIC50 (Histone deacetylase 2)
1 | Nc1ccccc1NC(=O)c1ccc(CNC(=O)OCc2cccnc2)cc1 [ENTINOSTAT] | 5.66 | 6.11 | 5.27 | 5.33 | 6.26 |  |  | 
2 | COc1ccc(-c2noc(CNCc3ccc(C(=O)NO)cc3)n2)cc1 | < 4.00 | 4.73 | < 4.00 | 5.05 | 5.46 | 6.07 | 5.08 | < 5.00
3 | O=C(NO)c1ccc(CNCc2nc(-c3ccc(F)cc3)no2)cc1 | < 4.00 | 4.75 | < 4.00 | 5.04 | 5.53 | 6.64 | 5.45 | 5.11
4 | O=C(NO)c1ccc(CNCc2nc(-c3cccs3)no2)cc1 | < 4.00 | < 4.00 | < 4.00 | 4.62 | 4.97 | 5.08 | < 5.00 | < 5.00
5 | Nc1ccccc1NC(=O)c1ccc(CNCc2nc(-c3ccc(C(F)(F)F)cc3)no2)cc1 | 4.63 | 4.71 | 4.00 | 5.16 | 5.59 | < 5.00 | 5.56 | 5.23
6 | Nc1ccccc1NC(=O)c1ccc(CNCc2nc(-c3ccc(Cl)cc3)no2)cc1 | 5.10 | 5.17 | 4.87 | 5.29 | 6.37 | < 5.00 | 7.05 | 6.37
7 | Cc1ccc(-c2noc(CNCc3ccc(C(=O)NO)cc3)n2)cc1 | < 4.00 | 4.56 | < 4.00 | 4.81 | 5.11 | 5.90 | 5.16 | < 5.00
8 | Nc1ccccc1NC(=O)c1ccc(CNCc2nc(-c3ccc([N+](=O)[O-])cc3)no2)cc1 | 5.33 | 5.63 | 5.19 | 5.50 | 6.28 | < 5.00 | 7.22 | 6.82
9 | O=C(NO)c1ccc(CNCc2nc(-c3ccc([N+](=O)[O-])cc3)no2)cc1 | < 4.00 | 4.66 | < 4.00 | 5.02 | 5.19 | 6.42 | 5.57 | 5.03
10 | Nc1ccccc1NC(=O)c1ccc(CNCc2nc(-c3cccs3)no2)cc1 | 4.45 | 4.57 | < 4.00 | 4.99 | 5.22 | < 5.00 | 5.41 | 5.36
11 | Nc1ccccc1NC(=O)c1ccc(CNCc2nc(-c3ccccc3Cl)no2)cc1 | 5.48 | 5.91 | 5.10 | 5.45 | 6.42 | < 5.00 | 7.15 | 6.49
12 | Nc1ccccc1NC(=O)c1ccc(CNCc2nc(-c3cccnc3)no2)cc1 | 4.00 | 4.36 | < 4.00 | 4.67 | 4.96 | < 5.00 | 5.28 | 5.08
13 | O=C(NO)c1ccc(CNCc2nc(-c3ccc(Cl)cc3)no2)cc1 | < 4.00 | 4.52 | < 4.00 | 4.96 | 5.28 | 6.46 | 5.41 | 5.07
14 | Nc1ccccc1NC(=O)c1ccc(CNCc2nc(-c3ccc(F)cc3)no2)cc1 | 5.36 | 5.45 | 4.97 | 5.53 | 5.90 | < 5.00 | 6.96 | 6.55
15 | O=C(CCCCCCC(=O)Nc1ccccc1)NO [VORINOSTAT] | 6.89 |  |  |  |  |  |  | 
16 | COc1ccc(-c2noc(CNCc3ccc(C(=O)Nc4ccccc4N)cc3)n2)cc1 | 5.24 | 5.36 | 5.10 | 5.26 | 5.96 | < 5.00 | 6.74 | 6.54
17 | Cc1ccc(-c2noc(CNCc3ccc(C(=O)Nc4ccccc4N)cc3)n2)cc1 | 5.13 | 5.18 | 5.01 | 5.24 | 6.01 | < 5.00 | 6.68 | 6.25
18 | O=C(NO)c1ccc(CNCc2nc(-c3ccc(C(F)(F)F)cc3)no2)cc1 | < 4.00 | 4.37 | < 4.00 | 4.91 | 5.09 | 5.87 | 5.02 | < 5.00
19 | O=C(NO)c1ccc(CNCc2nc(-c3ccccc3)no2)cc1 | < 4.00 | 4.53 | < 4.00 | 4.83 | 5.14 | 6.70 | 5.24 | < 5.00
20 | Nc1ccccc1NC(=O)c1ccc(CNCc2nc(-c3ccccc3)no2)cc1 | 4.93 | 5.06 | 4.97 | 5.11 | 5.79 | < 5.00 | 6.55 | 6.28
